In brackets after ≈: the same amount, converted by molar mass. Where two headings read alike, the source gives them in different places.
What was measured:
physchem = conditions: 20 °C
[1] = rabbit, in vivo
cyanide toxicity [2] = conditions: in vivo; cited from earlier work
cyanide toxicity [3] = conditions: mouse, in vivo; cited from earlier work

## O=C([O-])C1(O)CSC(O)(C(=O)[O-])CS1.[Li+].[Li+] (stereo not shown) [Compound 3b, Dilithium 2,5-Dihydroxy-1,4-dithiane-2,5-dicarboxylate]
physchem
  solubility: 1050 mM

## NCCCC[C@H](N)C(=O)O.NCCCC[C@H](N)C(=O)O.O=C(O)C1(O)CSC(O)(C(=O)O)CS1 (stereo not shown) [lysine salt]
[1]
  absorption of the antidote: poor absorption
  tolerability of injection: poorly tolerated

## O.O.O.O.O=C(O)C1(O)CSC(O)(C(=O)O)CS1.[Na].[Na] (stereo not shown) [Compound 3a, disodium 2,5-dihydroxy-1,4-dithiane-2,5-dicarboxylic acid tetrahydrate]
Cyanide toxicity [2]
  rescue: highly effective
Cyanide toxicity [3]
  rescue: highly effective

## O=C(O)C1(O)CSC(O)(C(=O)O)CS1 (stereo not shown) [Compound 2, 2,5-dihydroxy-1,4-dithiane-2,5-dicarboxylic acid]
physchem
  solubility: 200 mM (≈ 48.1 mg/mL)

## O=C([O-])C1(O)CSC(O)(C(=O)[O-])CS1.[K+].[K+] (stereo not shown) [Compound 3c, Dipotassium 2,5-Dihydroxy-1,4-dithiane-2,5-dicarboxylate]
physchem
  solubility: 570 mM

Source: patent publication US9757354B2 (priority 2015, dated 2017)
